Results published in patent publication US8901312B2, “Cyclic compound, method for producing cyclic compound, and method for modifying biological molecule” (JNC Corporation, priority 2010, dated 2014).
Where two headings read alike, the source gives them in different places.

How the values were obtained:
[1] = tested on: azido-HaloTag protein (GST-HaloTag protein on GSH-Sepharose resin); assay: Fluorescence labeling of azido-HaloTag protein by SPDC reaction, SDS-PAGE fluorescence imaging; format: biochemical
[2] = tested on: azido-glycoconjugates on the surface of HEK293 cells; assay: Fluorescence labeling of azido-glycoconjugates on the surface of living cells; format: cell-based
[3] = tested on: HEK293 cells; assay: Cytotoxicity assay in living cells; format: cell-based; settings: 0 to 80 μM, incubation overnight
Procedure: Finally, cytotoxicity assay of diyne 3 was performed in living cells. HEK293 cells were incubated and diyne 3 was added to the cells in a concentration of 0 to 80 μM, followed by incubation overnight. Morphological images of the cells after incubation, which were taken under a phase-contrast microscope and visualized with Adobe Photoshop CS2, are shown in FIG. 10.

Structure (SMILES)	fluorescence labeling efficiency of azido-HaloTag protein ([1]; sequential SPDC reaction: diyne 3, wash, then TESRA-PEO3-azide (9))	total labeling efficiency of TESRA-labeled HaloTag protein ([1]; simultaneous SPDC reaction with TESRA-PEO3-azide (9), relative to TESRA-HaloTag ligand (10) labeling taken as almost 100%)	reaction time at which labeling efficiency became maximum ([2]; 40 μM diyne 3, HEK293 cells with azido-glycoconjugates, 0 to 48 minutes)	fluorescence labeling of cell surface azido-glycoconjugates (result in words) ([2]; HEK293 cells cultured with Ac4ManNAz)	cytotoxicity (cell morphology, phase-contrast microscope) [3]	fluorescence labeling of cell surface azido-glycoconjugates (result in words) [2]
C1#Cc2ccccc2C#Cc2ccccc21 [diyne 3, sym-dibenzo-1,5-cyclooctadiene-3,7-diyne]	approximately 45%	~40%	approximately 20 minutes	a reliable fluorescence signal was detected	did not show cytotoxicity	–
O=C(NCCNC(=S)Nc1ccc2c(c1)C(=O)OC21c2ccc(O)cc2Oc2cc(O)ccc21)OC1Cc2ccccc2C#Cc2ccccc21 (stereo not drawn) [monoyne 22, 1-[2-{(11,12-didehydro-5,6-dihydrodibenzo[a,e]cycloocten-5-yl)oxycarbonylamino}ethyl]-3-(5-fluoresceinyl)thiourea]	–	–	–	–	–	substantial difference in fluorescence labeling efficiency between the SPDC reaction and the single click reaction was hardly observed
